Results as given in patent US20080033026A1, “Antimicrobial compositions, methods and systems” (priority 2006, published 2008).

Experiments:
[1] = tested on: Escherichia coli 0157:H7 (ATCC 43895); assay: Time-kill determination; type: cell-based
Protocol: (§1) The assessment of efficacy of 9-decenoic acid against a spectrum of microorganisms was determined using the American Society for Testing and Materials (ASTM) procedure entitled “Standard Test Method for the Assessment of Microbiocidal Activity of Test Materials Using a Time-Kill Procedure,” October 1998. This procedure incorporates the recommendations described in the “Manual of Clinical Microbiology,” 5th ed., edited by A. B. Balows et al., ASM, Washington, and is directed by the Federal Register, June 1994.
(§2) Challenge organisms were prepared as follows. Cultures of the following organisms were obtained: Staphylococcus aureus (ATCC 6538), Pseudomonas aeruginosa (ATCC 15442), Staphylococcus epidermidis (ATCC 12228), Klebsiella pneumoniae (ATCC 4352), Escherichia coli 0157:H7 (ATCC 43895) and Candida albicans (ATCC 10231). The stock cultures were transferred to sterile tubes and sterile tryptic soy broth (TSB) was added to the cultures. The mixture was incubated for 18-24 hours at 37° C. (±2° C.). A portion of this culture was then transferred onto TSA plates and incubated for 18-24 hours at 37° C. (±2° C.). The plates were removed from incubation and the bacterial growth was washed from the agar surface using Butterfield's Phosphate Buffered Dilution Water (PBDW).
(§3) The bacterial suspension was adjusted to contain approximately 10^8 Colony Forming Units (CFU) per ml with PBDW. The concentration was adjusted to an optical density (OD) of 0.4-0.5 (versus a PBDW blank) at 620 nm in a UV-Vis spectrophotometer, and this optical density gave approximately 10^8 colony forming units per milliliter (cfu/ml). The standardized suspension was stored under appropriate conditions until it was used as the challenge inoculum.
(§4) Concentrated 9-decenoic acid (97%) was diluted in filter sterilized isopropanol to yield a 25,000 ppm stock solution. Subsequent dilutions to the 9-decenoic acid stock solutions were made with sterile Deionized Water (DI) to achieve concentrations of 0.1%, 0.05%, 0.01% and 0.001%. The pH was determined for each dilution; pH values ranged from 4.4-4.1. […] In addition, 9-decenoic acid stock solution was combined with Triclosan™ (obtained from Ciba Specialty Chemical Corporation, under the tradename Irgasan DP 300™) in various ratios, as indicated in Table 8. The pH of the combined solution was 7.
(§5) Compliant with the ASTM procedure cited, for each challenge microorganism a 9.9 ml aliquot of the prepared 9-decenoic acid suspension was added to a sterile tube. A 0.1 ml aliquot of the standardized inoculum was added to the 9-decenoic acid solution representing the start of the test exposure. The inoculated 9-decenoic acid solution was immediately mixed thoroughly. The inoculated suspension was held at room temperature for 0.5, 2, 5, 7 and 10-minute exposure times for tests run at pH level of approximately 4. The pH 7 tests were held at room temperature for 0.5 and 2 minutes.
(§6) At each exposure sample time, a 1.0 ml aliquot of the inoculated 9-decenoic acid suspension was transferred to 9.0 ml of D/E Neutralizing Broth. Additional ten-fold serial dilutions were made in PBDW and plated in duplicate on TSA. All plates were incubated for 48 hours at 37° C. (±2° C.) and visually examined for growth. The plates were enumerated, recorded and log kill determined for each time point.
(§7) The following study controls were conducted: culture purity, neutralizer sterility, initial suspension population, test population, neutralization verification and a negative control using isopropanol. Culture purity was verified by performing a streak plate for isolated colonies of each culture used. All cultures were determined to be pure based on consistent colony morphology typical for the test organism. The neutralizer sterility was confirmed by no growth in an incubated sample.
(§8) The populations of the initial and test culture were determined by serial dilution, plating and enumerating after incubation. The initial suspension were determined to be ≧10^4 CFU/ml. […]

[2] = tested on: Staphylococcus aureus (ATCC 6538); assay: Time-kill determination; type: cell-based
Protocol: as §1, §2, §3, §4, §5, §6, §7, §8

[3] = 0.01% 9-decenoic acid, pH 4.4, exposure 0.5 min
[4] = 0.01% 9-decenoic acid, pH 4.4, exposure 2 min
[5] = 0.01% 9-decenoic acid, pH 4.4, exposure 5 min
[6] = 0.01% 9-decenoic acid, pH 4.4, exposure 7 min
[7] = 0.01% 9-decenoic acid, pH 4.4, exposure 10 min
[8] = 0.05% 9-decenoic acid, pH 4.1, exposure 0.5 min
[9] = 0.05% 9-decenoic acid, pH 4.1, exposure 2 min
[10] = 0.05% 9-decenoic acid, pH 4.1, exposure 5 min
[11] = 0.05% 9-decenoic acid, pH 4.1, exposure 7 min
[12] = 0.05% 9-decenoic acid, pH 4.1, exposure 10 min
[13] = 0.05% 9-decenoic acid, pH 7, exposure 0.5 min
[14] = 0.05% 9-decenoic acid, pH 7, exposure 2 min
[15] = 0.1% 9-decenoic acid, pH 4.1, exposure 0.5 min
[16] = 0.1% 9-decenoic acid, pH 4.1, exposure 2 min
[17] = 0.1% 9-decenoic acid, pH 4.1, exposure 5 min
[18] = 0.1% 9-decenoic acid, pH 4.1, exposure 7 min
[19] = 0.1% 9-decenoic acid, pH 4.1, exposure 10 min
[20] = 0.75% 9-decenoic acid, pH 7, exposure 0.5 min
[21] = 0.75% 9-decenoic acid, pH 7, exposure 2 min
[22] = 1% 9-decenoic acid, pH 7, exposure 0.5 min
[23] = 1% 9-decenoic acid, pH 7, exposure 2 min

`C=CCCCCCCCC(=O)O` [9-decenoic acid] was tested, and the Log reduction [1, 3] was 1.3 log, the Log reduction [1, 4] was 1.6 log and the Log reduction [1, 5] was 2.2 log. For the same compound, the Log reduction [1, 6] was 1.8 log, the Log reduction [1, 7] was 2.7 log and the Log reduction [1, 8] was >6.2 log. The Log reduction [1, 9] was >6.2 log, the Log reduction [1, 10] was >6.2 log and the Log reduction [1, 11] was >6.2 log. The Log reduction [1, 12] was >6.2 log, the Log reduction [1, 13] was 0 log and the Log reduction [1, 14] was 0 log. For the same compound, the Log reduction [1, 15] was >6.2 log, the Log reduction [1, 16] was >6.2 log and the Log reduction [1, 17] was >6.2 log. The Log reduction [1, 18] was >6.2 log, the Log reduction [1, 19] was >6.2 log and the “Enhancement of disinfectant activity of marginally-effective concentrations of Triclosan” value ([1]; 0.5% 9-decenoic acid added to Triclosan, pH 7) was 1-2 log reductions. For the same compound, the Log reduction ([1]; 0.5% 9-decenoic acid, pH 7, exposure 0.5 min) was 0 log, the Log reduction ([1]; 0.5% 9-decenoic acid, pH 7, exposure 2 min) was 0 log and the Log reduction [1, 20] was 0.83 log. The Log reduction [1, 21] was >4.2 log, the Log reduction [1, 22] was >4.2 log and the Log reduction [1, 23] was >4.2 log. For the same compound, the Log reduction [2, 3] was 1.4 log, the Log reduction [2, 4] was 4.6 log and the Log reduction [2, 5] was >6.5 log. The Log reduction [2, 6] was >6.5 log, the Log reduction [2, 7] was >6.5 log and the Log reduction [2, 8] was >6.5 log. For the same compound, the Log reduction [2, 9] was >6.5 log, the Log reduction [2, 10] was >6.5 log and the Log reduction [2, 11] was >6.5 log. The Log reduction [2, 12] was >6.5 log, the Log reduction [2, 13] was 0 log and the Log reduction [2, 14] was 0 log. For the same compound, the Log reduction [2, 15] was >6.5 log, the Log reduction [2, 16] was >6.5 log and the Log reduction [2, 17] was >6.5 log. The Log reduction [2, 18] was >6.5 log, the Log reduction [2, 19] was >6.5 log and the Log reduction [2, 20] was 0.67 log. It also gave a Log reduction [2, 21] of 1 log, a Log reduction [2, 22] of 2.1 log and a Log reduction [2, 23] of 3.2 log.
